Structures are written as SMILES.

The assay deals with HPK1 (Homo sapiens (Human), UniProt Q92918). As to the kind of experiment: HPK1 biochemical enzyme assay (microfluidic mobility shift assay). Particulars: 1 mM ATP; 1.5 nM HPK1; 30 min preincubation, 60 min reaction; Caliper EZ Reader; read-out: HPK1 1000UMATP caliper IC50. The procedure:
HPK1 biochemical enzyme assay: HPK1 enzyme inhibition was measured using a microfluidic mobility shift assay. […] Test compounds were titrated in ten point curves (top final assay concentration 3 μM), and preincubated with enzyme/substrate mix for 30 min prior to initiation of the reaction by addition of ATP (1 mM final concentration) and substrate (1 μM final concentration; Carna Biosciences) diluted in assay buffer supplemented by MgCl2 (final assay concentration of 5 mM). Following 60 min incubation at RT, the reaction was terminated by addition of 60 μl/well termination buffer (Carna Biosciences) and signal determination using a Caliper EZ Reader (Perkin Elmer, UK).

HPK1, sequence (Q92918 whole entry): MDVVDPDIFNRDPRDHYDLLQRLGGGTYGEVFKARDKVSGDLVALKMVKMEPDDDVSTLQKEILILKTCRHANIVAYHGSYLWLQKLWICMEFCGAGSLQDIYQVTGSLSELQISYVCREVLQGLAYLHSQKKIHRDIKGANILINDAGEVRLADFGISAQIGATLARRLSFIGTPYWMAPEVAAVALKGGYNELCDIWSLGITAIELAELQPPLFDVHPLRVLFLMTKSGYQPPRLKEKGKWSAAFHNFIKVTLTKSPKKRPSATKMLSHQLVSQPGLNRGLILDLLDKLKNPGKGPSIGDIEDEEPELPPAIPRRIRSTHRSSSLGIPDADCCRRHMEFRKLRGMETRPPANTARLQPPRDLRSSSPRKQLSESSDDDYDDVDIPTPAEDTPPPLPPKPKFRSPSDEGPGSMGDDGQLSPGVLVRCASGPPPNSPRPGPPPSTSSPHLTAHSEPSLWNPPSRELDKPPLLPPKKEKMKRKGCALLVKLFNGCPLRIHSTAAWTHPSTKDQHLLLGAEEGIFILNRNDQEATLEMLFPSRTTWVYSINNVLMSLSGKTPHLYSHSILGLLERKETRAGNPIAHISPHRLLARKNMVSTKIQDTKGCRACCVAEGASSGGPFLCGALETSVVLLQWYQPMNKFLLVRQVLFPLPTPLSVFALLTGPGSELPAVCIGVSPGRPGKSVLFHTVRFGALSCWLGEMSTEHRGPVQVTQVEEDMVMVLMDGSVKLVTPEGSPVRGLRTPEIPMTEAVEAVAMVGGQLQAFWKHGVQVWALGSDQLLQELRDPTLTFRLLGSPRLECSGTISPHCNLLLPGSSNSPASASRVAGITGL

A word on the IC50: it is the concentration that inhibits the measured activity by half. Turning to `O=C1NCc2c(-c3cnc4cc(F)ccn34)ccc(Nc3ccc(N4CC5CCC(C4)C5O)cn3)c21` (stereo not shown) [I-405, 4-(7-fluoroimidazo [1,2-a]pyridin-3-yl)-7-((5-(8-hydroxy-3-azabicyclo [3.2.1]octan-3-yl)pyridin-2-yl)amino)isoin-dolin-1-one], the 50% inhibitory concentration (IC50) is below 100 nM.
